Values of other authors, collected in PMC13029847, “Decoding the Liver–Blood Partitioning of Neonicotinoid Insecticides: Evidence from Paired Human Liver and Blood Biomonitoring” (Toxics, 2026).
≈ marks a conversion by molar mass, not a printed value.

Settings: ref PubChem Open Chemistry Database

| SMILES | Solubility [mg/mL] |
| --- | --- |
| CCN(Cc1ccc(Cl)nc1)/C(=C/[N+](=O)[O-])NC [NIT, nitenpyram] | 840 (≈ 3100 mM) |
| CN1COCN(Cc2cnc(Cl)s2)/C1=N\[N+](=O)[O-] [THIA, thiamethoxam] | 4.1 (≈ 14.1 mM) |
